What was measured:
HEKa cells = test: Genes related with response to sleep deprivation, RT-qPCR in HEKa (Example 16); format: cell-based, Human; details: 0.01 mg/ml, 24 hours
Description: A stock solution of the peptide was prepared in water at 1 mg/mL. Working solution was freshly prepared at the specified concentration from stock solution in the corresponding supplemented medium.
RNA (ribonucleic acid) extraction and RT-qPCR (reverse transcription quantitative polymerase chain reaction) were performed. Briefly, HEKa, HDFa or HUVEC cells were seeded in duplicate (n=2) in 6-well plates at a density of 4×10^5 cells/well (2×10^5 cells/well for HUVEC cells) and maintained at standard culture conditions (106 Medium supplemented with 1% (v/v) LSGS for HDFa cells; Medium Epilife supplemented with 1% (v/v) EDGS and 1% (v/v) penicillin/streptomycin for HEKa cells; Endothelial Cell Growth Medium for HUVEC cells; 37° C., 95% room humidity, 5% CO2) for 24 hours.
Then, cells were treated with peptide Ac-SEQ ID NO: 1-NH2 at the concentration of 0.01 mg/mL for 24 hours. Untreated cells were used as basal or negative control.
Cells were finally lysed, and replicates were pooled together for RNA extraction using Qiagen RNeasy Mini kit following manufacturer's instructions. Purified RNAs were used to generate the corresponding cDNAs (complementary deoxyribonucleic acids) by reverse transcription using a commercial kit High capacity cDNA reverse transcription kit (Applied Biosystems) which served as templates for amplification. RT-qPCR was performed with the panel of appropriate TaqMan assay probes for genes shown in table 10 (plus GAPDH—Glyceraldehyde 3-phosphate dehydrogenase—that was used as housekeeping gene) and 2×gene expression Master Mix using StepOne plus Real-Time PCR instrument. Amplification included 40 cycles of: 15 seconds at 95° C. (denaturation) and 1 minute at 60° C. (Annealing and extension) (Arya, M., Shergill, I. S., Williamson, M., Gommersall, L., Arya, N., Patel, H. R. (2005) Basic principles of real-time quantitative PCR. Expert Rev. Mol. Diagn.; 5(2):209-19; and Jozefczuk, J. and Adjaye, J. (2011) Quantitative real-time PCR-based analysis of gene expression. Methods Enzymol. 500; 99-109).
The obtained data was analysed using the ΔΔCt method, which provides the target gene expression values as fold changes in the treated sample compared with an untreated basal sample. Both samples were normalized with the relative expression of a housekeeping gene GAPDH (Glyceraldehyde 3-phosphate dehydrogenase).

human skin explants = test: Ex vivo fibrillin-1 immunostaining after methylglyoxal (Example 15); details: cream containing 1% Ac-SEQ ID NO: 1-NH2, topical 2 mg/cm^2; methylglyoxal 500 μM; day 9
Description: Briefly, human skin explants from a person were kept in survival in BEM culture medium at 37° C. in a humid, 5% CO2 atmosphere. A placebo cream and a cream containing 1% Ac-SEQ ID NO: 1-NH2, prepared according to Example 6, were applied topically on the basis of 2 μL per explant (2mg/cm^2) and spread using a small spatula on day 0 (DO), day 1, day 4, day 6 and day 8. […] To induce glycation, a solution of Methylglyoxal (MG) was incorporated in the BEM culture medium at a final concentration of 500 μM on day 4, day 6 and day 8, on the concerned batches “MG” (all samples except control untreated samples). Explants were collected at each timepoint and cut in two parts. Half was fixed in buffered formalin solution and half was frozen at −80° C.
The nuclei were counterstained with propidium iodide.

Ac-Arg-Arg-Gln-Met-Arg-Glu-NH2 (Ac-RRQMRE-NH2) [Ac-SEQ ID NO: 1-NH2]
CXCL8 Fold change between treated cells and basal control (HEKa cells): −1.33 Fold change
MTNR1A Fold change between treated cells and basal control (HEKa cells): 2.11 Fold change
SIGIRR Fold change between treated cells and basal control (HEKa cells): 1.27 Fold change
SLC2A1 Fold change between treated cells and basal control (HEKa cells): −1.21 Fold change
increase in fibrillin 1 staining when compared with the MG-exposed untreated control (human skin explants): 86%
